“And” between values parts separate entries of the source, which are not always exact repeats. Equal values may be shown once. Toxic doses and inconclusive results are not listed. Rule as the data show it: active = T/C of 150% or more; inactive = T/C below 125%.
System: L1210 leukemia ip in BDF1 mice, survival T/C
Assay: NCI In Vivo Anticancer Drug Screen. Data for tumor model L1210 Leukemia (intraperitoneal) in B6D2F1 (BDF1) mice
Details: higher = longer survival
Procedure, shortened: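 Transplanted-tumor mice were given test agent; controls received vehicle only. Survival readings from the two groups were divided (treated over control).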

Measured: T/C

O=c1[nH]c(=O)n(C2CC(O)C(CO)O2)cc1F (configuration not stated)
inactive: endpoint: mean survival time, dose: 2.3 mg/kg/injection, schedule: Q01DX009 (ip), vehicle: saline 95 % of control and 100 % of control | endpoint: mean survival time, dose: 2.5 mg/kg/injection, schedule: Q01DX009 (ip), vehicle: saline 105 % of control | endpoint: mean survival time, dose: 3.12 mg/kg/injection, schedule: Q#A X Z (ip), vehicle: saline 109 % of control | endpoint: mean survival time, dose: 4.5 mg/kg/injection, schedule: Q01DX009 (ip), vehicle: saline 106 % of control | endpoint: mean survival time, dose: 5.0 mg/kg/injection, schedule: Q01DX009 (ip), vehicle: saline 103 % of control | endpoint: mean survival time, dose: 5.0 mg/kg/injection, schedule: Q01DX009 (oral), vehicle: saline 105 % of control | endpoint: mean survival time, dose: 6.25 mg/kg/injection, schedule: Q01DX Z (ip), vehicle: saline 105 % of control | endpoint: mean survival time, dose: 6.25 mg/kg/injection, schedule: Q#A X Z (ip), vehicle: saline 114 % of control | endpoint: mean survival time, dose: 9.0 mg/kg/injection, schedule: Q01DX009 (ip), vehicle: saline 103 % of control and 110 % of control | endpoint: mean survival time, dose: 10.0 mg/kg/injection, schedule: Q01DX005 (ip), vehicle: water 99 % of control and 102 % of control | endpoint: mean survival time, dose: 10.0 mg/kg/injection, schedule: Q01DX009 (ip), vehicle: saline 112 % of control | endpoint: mean survival time, dose: 10.0 mg/kg/injection, schedule: Q01DX009 (oral), vehicle: saline 98 % of control | endpoint: mean survival time, dose: 11.0 mg/kg/injection, schedule: Q07DX Z (ip), vehicle: saline 106 % of control | endpoint: mean survival time, dose: 12.5 mg/kg/injection, schedule: Q01DX Z (ip), vehicle: saline 111 % of control | endpoint: mean survival time, dose: 18.0 mg/kg/injection, schedule: Q04DX002 (ip), vehicle: saline 106 % of control and 115 % of control | endpoint: mean survival time, dose: 20.0 mg/kg/injection, schedule: Q01DX009 (oral), vehicle: saline 105 % of control | endpoint: mean survival time, dose: 20.0 mg/kg/injection, schedule: Q01DX015 (ip), vehicle: water 111 % of control | endpoint: mean survival time, dose: 20.0 mg/kg/injection, schedule: Q01DX Z (ip), vehicle: saline 105 % of control | endpoint: mean survival time, dose: 22.0 mg/kg/injection, schedule: Q07DX Z (ip), vehicle: saline 102 % of control | endpoint: mean survival time, dose: 25.0 mg/kg/injection, schedule: Q01DX006 (iv), vehicle: saline 110 % of control | endpoint: mean survival time, dose: 25.0 mg/kg/injection, schedule: Q01DX Z (ip), vehicle: saline 111 % of control | endpoint: mean survival time, dose: 25.0 mg/kg/injection, schedule: Q01DX Z (sc), vehicle: saline 111 % of control | endpoint: mean survival time, dose: 25.9 mg/kg/injection, schedule: Q01DX009 (ip), vehicle: saline 115 % of control | endpoint: mean survival time, dose: 29.0 mg/kg/injection, schedule: Q02DX008 (ip), vehicle: water 98 % of control | endpoint: mean survival time, dose: 30.0 mg/kg/injection, schedule: Q01DX015 (ip), vehicle: water 108 % of control | endpoint: mean survival time, dose: 30.0 mg/kg/injection, schedule: Q01DX Z (ip), vehicle: saline 106 % of control | endpoint: mean survival time, dose: 36.0 mg/kg/injection, schedule: Q04DX002 (ip), vehicle: saline 100 % of control and 110 % of control | endpoint: mean survival time, dose: 40.0 mg/kg/injection, schedule: Q01DX Z (ip), vehicle: saline 112 % of control | endpoint: mean survival time, dose: 42.0 mg/kg/injection, schedule: Q02DX008 (ip), vehicle: water 101 % of control | endpoint: mean survival time, dose: 44.0 mg/kg/injection, schedule: Q07DX Z (ip), vehicle: saline 106 % of control | endpoint: mean survival time, dose: 50.0 mg/kg/injection, schedule: Q01DX001 (ip), vehicle: saline 107 % of control | endpoint: mean survival time, dose: 50.0 mg/kg/injection, schedule: Q01DX Z (oral), vehicle: saline 107 % of control | endpoint: mean survival time, dose: 50.0 mg/kg/injection, schedule: Q02DX009 (ip), vehicle: saline 110 % of control | endpoint: mean survival time, dose: 50.0 mg/kg/injection, schedule: Q04DX003 (ip), vehicle: saline 105 % of control | endpoint: mean survival time, dose: 60.0 mg/kg/injection, schedule: Q## X004 (ip), vehicle: water 108 % of control | endpoint: mean survival time, dose: 63.0 mg/kg/injection, schedule: Q02DX008 (ip), vehicle: water 111 % of control | endpoint: mean survival time, dose: 75.0 mg/kg/injection, schedule: Q03DX006 (ip), vehicle: saline 111 % of control | endpoint: mean survival time, dose: 80.0 mg/kg/injection, schedule: Q01DX Z (ip), vehicle: saline 102 % of control | endpoint: mean survival time, dose: 80.0 mg/kg/injection, schedule: Q## X032 (ip), vehicle: water 108 % of control | endpoint: mean survival time, dose: 88.0 mg/kg/injection, schedule: Q07DX Z (ip), vehicle: saline 113 % of control | endpoint: mean survival time, dose: 90.0 mg/kg/injection, schedule: Q## X004 (ip), vehicle: water 98 % of control | endpoint: mean survival time, dose: 100.0 mg/kg/injection, schedule: Q01DX001 (ip), vehicle: saline 104 % of control and 110 % of control | endpoint: mean survival time, dose: 100.0 mg/kg/injection, schedule: Q01DX001 (ip), vehicle: water 100 % of control | endpoint: mean survival time, dose: 100.0 mg/kg/injection, schedule: Q01DX005 (ip), vehicle: saline 116 % of control | endpoint: mean survival time, dose: 100.0 mg/kg/injection, schedule: Q01DX Z (sc), vehicle: saline 111 % of control | endpoint: mean survival time, dose: 100.0 mg/kg/injection, schedule: Q04DX003 (ip), vehicle: saline 111 % of control | endpoint: mean survival time, dose: 100.0 mg/kg/injection, schedule: Q04DX005 (ip), vehicle: saline 115 % of control | endpoint: mean survival time, dose: 100.0 mg/kg/injection, schedule: Q#A X Z (ip), vehicle: saline 105 % of control | endpoint: mean survival time, dose: 125.0 mg/kg/injection, schedule: Q01DX001 (ip), vehicle: saline 112 % of control | endpoint: mean survival time, dose: 150.0 mg/kg/injection, schedule: Q01DX001 (ip), vehicle: water 102 % of control | endpoint: mean survival time, dose: 160.0 mg/kg/injection, schedule: Q01DX009 (ip), vehicle: saline 100 % of control | endpoint: mean survival time, dose: 160.0 mg/kg/injection, schedule: Q01DX009 (oral), vehicle: saline 101 % of control | endpoint: mean survival time, dose: 160.0 mg/kg/injection, schedule: Q01DX Z (ip), vehicle: saline 110 % of control | endpoint: mean survival time, dose: 175.0 mg/kg/injection, schedule: Q07DX003 (ip), vehicle: saline 114 % of control | endpoint: mean survival time, dose: 200.0 mg/kg/injection, schedule: Q01DX001 (ip), vehicle: saline 106 % of control and 107 % of control | endpoint: mean survival time, dose: 200.0 mg/kg/injection, schedule: Q01DX017 (ip), vehicle: saline 100 % of control | endpoint: mean survival time, dose: 200.0 mg/kg/injection, schedule: Q01DX Z (im), vehicle: saline 107 % of control | endpoint: mean survival time, dose: 200.0 mg/kg/injection, schedule: Q01DX Z (ip), vehicle: carboxymethylcellulose (CMC) 94 % of control | endpoint: mean survival time, dose: 200.0 mg/kg/injection, schedule: Q01DX Z (ip), vehicle: saline 102 % of control | endpoint: mean survival time, dose: 200.0 mg/kg/injection, schedule: Q01DX Z (sc), vehicle: saline 96 % of control | endpoint: mean survival time, dose: 200.0 mg/kg/injection, schedule: Q04DX002 (ip), vehicle: water 112 % of control | endpoint: mean survival time, dose: 225.0 mg/kg/injection, schedule: Q01DX001 (ip), vehicle: water 110 % of control | endpoint: mean survival time, dose: 250.0 mg/kg/injection, schedule: Q01DX001 (ip), vehicle: saline 109 % of control | endpoint: mean survival time, dose: 250.0 mg/kg/injection, schedule: Q01DX Z (ip), vehicle: saline 95 % of control | endpoint: mean survival time, dose: 270.0 mg/kg/injection, schedule: Q01DX009 (ip), vehicle: saline 115 % of control | endpoint: mean survival time, dose: 270.0 mg/kg/injection, schedule: Q## X009 (ip), vehicle: saline 115 % of control | endpoint: mean survival time, dose: 300.0 mg/kg/injection, schedule: Q02DX010 (ip), vehicle: other 108 % of control | endpoint: mean survival time, dose: 320.0 mg/kg/injection, schedule: Q01DX009 (ip), vehicle: saline 101 % of control and 108 % of control | endpoint: mean survival time, dose: 320.0 mg/kg/injection, schedule: Q01DX009 (oral), vehicle: saline 93 % of control | endpoint: mean survival time, dose: 335.0 mg/kg/injection, schedule: Q01DX001 (ip), vehicle: saline 115 % of control | endpoint: mean survival time, dose: 350.0 mg/kg/injection, schedule: Q01DX Z (ip), vehicle: saline 104 % of control | endpoint: mean survival time, dose: 375.0 mg/kg/injection, schedule: Q04DX003 (ip), vehicle: saline 112 % of control | endpoint: mean survival time, dose: 400.0 mg/kg/injection, schedule: Q01DX001 (ip), vehicle: saline 116 % of control | endpoint: mean survival time, dose: 400.0 mg/kg/injection, schedule: Q01DX009 (ip), vehicle: saline 102 % of control | endpoint: mean survival time, dose: 400.0 mg/kg/injection, schedule: Q01DX Z (oral), vehicle: saline 105 % of control | endpoint: mean survival time, dose: 400.0 mg/kg/injection, schedule: Q02DX009 (ip), vehicle: saline 100 % of control | endpoint: mean survival time, dose: 450.0 mg/kg/injection, schedule: Q02DX010 (ip), vehicle: carboxymethylcellulose (CMC) 113 % of control | endpoint: mean survival time, dose: 450.0 mg/kg/injection, schedule: Q02DX010 (ip), vehicle: other 92 % of control | endpoint: mean survival time, dose: 500.0 mg/kg/injection, schedule: Q04DX003 (ip), vehicle: saline 105 % of control | endpoint: mean survival time, dose: 640.0 mg/kg/injection, schedule: Q01DX009 (ip), vehicle: saline 95 % of control | endpoint: mean survival time, dose: 640.0 mg/kg/injection, schedule: Q01DX009 (oral), vehicle: saline 96 % of control | endpoint: mean survival time, dose: 700.0 mg/kg/injection, schedule: Q07DX003 (ip), vehicle: saline 111 % of control | endpoint: mean survival time, dose: 714.0 mg/kg/injection, schedule: Q02DX008 (ip), vehicle: saline 113 % of control | endpoint: mean survival time, dose: 750.0 mg/kg/injection, schedule: Q01DX001 (ip), vehicle: saline 112 % of control | endpoint: mean survival time, dose: 800.0 mg/kg/injection, schedule: Q01DX001 (ip), vehicle: water 108 % of control | endpoint: mean survival time, dose: 800.0 mg/kg/injection, schedule: Q01DX Z (oral), vehicle: saline 108 % of control | endpoint: mean survival time, dose: 800.0 mg/kg/injection, schedule: Q04DX003 (ip), vehicle: saline 113 % of control | endpoint: mean survival time, dose: 800.0 mg/kg/injection, schedule: Q04DX005 (ip), vehicle: saline 114 % of control | endpoint: mean survival time, dose: 1071.0 mg/kg/injection, schedule: Q02DX008 (ip), vehicle: saline 104 % of control | endpoint: mean survival time, dose: 1344.0 mg/kg/injection, schedule: Q## X032 (ip), vehicle: water 107 % of control | endpoint: median survival time, dose: 160.0 mg/kg/injection, schedule: Q01DX009 (ip), vehicle: saline 100 % of control | endpoint: median survival time, dose: 320.0 mg/kg/injection, schedule: Q01DX009 (ip), vehicle: saline 106 % of control
